Results: PubChem BioAssay (NCI)
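Here, GI50 denotes the concentration required for 50% inhibition of growth. TGI marks complete inhibition of growth.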

Key:
Experiment in all cases: NCI-60 cell line screen, 384-well format
[1] = system: SN12C renal
[2] = system: OVCAR-8 ovarian
[3] = system: SF-539 CNS
[4] = system: ACHN renal
[5] = system: NCI-H322M lung
[6] = system: SF-295 CNS
[7] = system: SNB-75 CNS
[8] = system: HOP-62 NSCLC
[9] = system: COLO 205 colon
[10] = system: MOLT-4 leukemia
[11] = system: PC-3 prostate
[12] = system: RXF 393 renal
[13] = system: RPMI-8226 leukemia
[14] = system: 786-0 renal
[15] = system: A498 renal
[16] = system: MDA-MB-435 melanoma
[17] = system: NCI-H23 lung
[18] = system: SK-OV-3 ovarian
[19] = system: OVCAR-4 ovarian
[20] = system: SK-MEL-5 melanoma
[21] = system: SF-268 CNS
[22] = system: TK-10 renal
[23] = system: HS 578T breast
[24] = system: UACC-257 melanoma
[25] = system: UO-31 renal
[26] = system: MALME-3M melanoma

## CC(C)c1cc(CNc2nc(Nc3cc(C4CC4)[nH]n3)cc(N3CCN(C)CC3)n2)on1
[1]
  GI50: 22.4 nM
  TGI: 207 nM
[2]
  GI50: 165 nM
  TGI: 1150 nM
[3]
  GI50: 31.1 nM
  TGI: 228 nM
[4]
  GI50: 225 nM
  TGI: 13400 nM
[5]
  GI50: 238 nM
  TGI: 1280 nM
[6]
  GI50: 63 nM
  TGI: 1050 nM
[7]
  GI50: 13.6 nM
  TGI: 165 nM
[8]
  GI50: 69.2 nM
  TGI: 306 nM
[9]
  GI50: < 10 nM
  TGI: 21.1 nM
[10]
  GI50: < 10 nM
  TGI: 16.9 nM
[11]
  GI50: 81.5 nM
  TGI: 2610 nM
[12]
  GI50: 60.4 nM
  TGI: 248 nM
[13]
  GI50: 19.6 nM
  TGI: 188 nM
[14]
  GI50: 135 nM
  TGI: 904 nM
[15]
  GI50: 189 nM
  TGI: 12400 nM
[16]
  GI50: 209 nM
  TGI: 2420 nM
[17]
  GI50: 14.5 nM
  TGI: 189 nM
[18]
  GI50: 69.6 nM
  TGI: 12700 nM
[19]
  GI50: 1160 nM
  TGI: 4540 nM
[20]
  GI50: 258 nM
  TGI: 1730 nM
[21]
  GI50: 30.7 nM
  TGI: 260 nM
[22]
  GI50: 137 nM
  TGI: 587 nM
[23]
  GI50: 42.3 nM
  TGI: 204 nM
[24]
  GI50: 1230 nM
  TGI: 2730 nM
[25]
  GI50: 221 nM
  TGI: 1270 nM
[26]
  GI50: 45.5 nM
  TGI: 1850 nM
